Results on seven molecules are retold here after BindingDB's records for doi:10.1021/jm00077a015 (Universität Regensburg, 1994).

pIC50: −log10 of the molar value.

The target of this test is lipid peroxidation in brain phospholipid liposomes (Bos taurus). In words: Tested for the inhibition of lipid peroxidation in bovine brain phospholipid liposomes.
With `O=C1c2c(O)cccc2C(=Cc2cc(O)c(O)c(O)c2)c2cccc(O)c21` [1,8-Dihydroxy-10-(3,4,5-trihydroxy-benzylidene)-10H-anthracen-9-one], the pIC50 (as a rule, −log10 of the IC50, conventionally taken in molar units) is 5.70. Molecule `O=C1c2c(O)cccc2C(=Cc2ccc(O)cc2)c2cccc(O)c21` [1,8-Dihydroxy-10-(4-hydroxy-benzylidene)-10H-anthracen-9-one] showed a pIC50 of 5.10. The same measure for `O=C1c2c(O)cccc2C(=Cc2ccc([N+](=O)[O-])cc2)c2cccc(O)c21` [1,8-dihydroxy-10-(4-nitrobenzylidene)anthracen-9(10H)-one]: 4.85. The same measure for `O=C1c2c(O)cccc2C(=Cc2ccc(O)c(O)c2)c2cccc(O)c21` [10-(3,4-dihydroxybenzylidene)-1,8-dihydroxyanthracen-9(10H)-one]: 5.70; for `CCCC(=O)C1c2cccc(O)c2C(=O)c2c(O)cccc21` [10-Butyryl-1,8-dihydroxy-10H-anthracen-9-one(Butantrone)]: 5.40. For `O=C1c2c(O)cccc2C(C(=O)Cc2ccc(O)c(O)c2)c2cccc(O)c21` [10-[2-(3,4-Dihydroxy-phenyl)-acetyl]-1,8-dihydroxy-10H-anthracen-9-one] the value was 6.00; for `O=C1c2c(O)cccc2C(=Cc2ccccc2)c2cccc(O)c21` [10-benzylidene-1,8-dihydroxyanthracen-9(10H)-one], 5.10.
